Experimental data: patent publication US10508109B2 (priority 2015, dated 2019)
Where a name gives a salt, the structure may show the parent alone. Read-outs that look alike come from different tables or passages of the source.

Legend:
A549 = assay: Cell-based assay, anti-proliferative activity (Cell Counting Kit-8, 72 hours); conditions: Homo sapiens, read-out: IC50 (μM) A549
Method: 100 micro-L of cell suspension was seeded onto 96-well microtiter plate (ViewPlate-96FTC, PerkinElmer). […] Cellular growth was determined using Cell Counting Kit-8 (DOJINDO) at 72 hours after the exposure of the candidate inhibitors. […] Accurate IC50 values were calculated as described previously.

SUV39H2 = SUV39H2 (Homo sapiens (Human), UniProt Q9H5I1); conditions: read-out: IC50 (μM) Suv 39H2 assay
Chain of SUV39H2 (Q9H5I1 whole entry): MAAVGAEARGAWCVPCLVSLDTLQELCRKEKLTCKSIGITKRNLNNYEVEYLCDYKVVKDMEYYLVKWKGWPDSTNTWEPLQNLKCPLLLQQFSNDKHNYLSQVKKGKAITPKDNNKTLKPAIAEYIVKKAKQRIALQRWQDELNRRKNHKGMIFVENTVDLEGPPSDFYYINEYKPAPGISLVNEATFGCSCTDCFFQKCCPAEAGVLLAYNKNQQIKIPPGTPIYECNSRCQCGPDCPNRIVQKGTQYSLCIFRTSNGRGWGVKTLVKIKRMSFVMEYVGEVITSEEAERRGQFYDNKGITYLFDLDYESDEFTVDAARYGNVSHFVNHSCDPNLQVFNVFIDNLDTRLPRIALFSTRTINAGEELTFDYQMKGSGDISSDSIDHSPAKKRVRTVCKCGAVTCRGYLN

HCT-116 = assay: Cell-based assay, anti-proliferative activity (Cell Counting Kit-8, 72 hours); conditions: Homo sapiens, read-out: IC50 (μM) HCT-116
Method: (§1) Active candidate inhibitors against SUV39H2 were evaluated for their target-specific cytotoxicity using A549, HCT-116, HFL1, CCD-18Co and PC14. 100 micro-L of cell suspension was seeded onto 96-well microtiter plate (ViewPlate-96FTC, PerkinElmer). The initial cell concentration of A549, HCT-116, HFL1, CCD-18Co and PC14 were 3,000 cells/well, 2,000 cells/well and 2,500 cells/well, respectively. Cellular growth was determined using Cell Counting Kit-8 (DOJINDO) at 72 hours after the exposure of the candidate inhibitors. IC50 was used as an indicator of the anti-proliferative activity of the inhibitors, and calculated by serial dilution method (0, 1.5625, 3.125, 6.25, 12.5, 25, 50, and 100 micro-M). Accurate IC50 values were calculated as described previously.

HFL1 = assay: as above; conditions: Homo sapiens, read-out: IC50 (μM) HFL1
Method: as §1

CCD-18Co = assay: as above; conditions: Homo sapiens, read-out: IC50 (μM) CCD-18Co
Method: as §1

[1] = A549 cells, Cell Counting Kit-8, 72 hours
[2] = HCT-116 cells, Cell Counting Kit-8, 72 hours
[3] = HFL1 cells, Cell Counting Kit-8, 72 hours
[4] = CCD-18Co cells, Cell Counting Kit-8, 72 hours

Row | SMILES | IC50 (A549; A549, 72 h) | IC50 (SUV39H2) | IC50 (HCT-116; HCT-116, 72 h) | IC50 (HFL1; HFL1, 72 h) | IC50 (CCD-18Co; CCD-18Co, 72 h) | IC50 (A549; [1]) | IC50 (SUV39H2; enzyme assay) | IC50 (HCT-116; [2]) | IC50 (HFL1; [3]) | IC50 (CCD-18Co; [4])
1 | COc1cc(OC)c(-c2cn3ccc(N4CCC(N)CC4)nc3n2)cc1Cl [Example 42, 1-(2-(5-chloro-2,4-dimethoxyphenyl)imidazo[1,2-a]pyrimidin-7-yl)-piperidin-4-amine hydrochloride] | 10 µM | 0.079 µM | 6.6 µM | 4.2 µM | 13 µM |  |  |  |  | 
2 | COc1cc(OC)c(-c2cn3ccc(N4CCN(CCO)CC4)nc3n2)cc1Cl [Example 45, 2-(4-(2-(5-chloro-2,4-dimethoxyphenyl)imidazo[1,2-a]pyrimidin-7-yl)-piperazin-1-yl)ethanol] |  |  |  |  |  | 18 µM | 0.0365 µM | 12 µM | 17 µM | 21 µM
3 | COc1cc(OC)c(-c2cn3ccc(N(C)CCNC(=O)OC(C)(C)C)cc3n2)cc1Cl [Example 48, tert-butyl (2-((2-(5-chloro-2,4-dimethoxyphenyl)imidazo[1,2-a]pyridine-7-yl)(methyl)aimno)ethyl)carbamate] |  |  |  |  |  | 8.2 µM | 0.0124 µM | 7.3 µM | 3.8 µM | 6.4 µM
4 | COc1cc(OC)c(-c2cn3cnc(N)cc3n2)cc1Cl [Example 51, 2-(5-chloro-2,4-dimethoxyphenyl)imidazo[1,2-c]pyrimidin-7-amine] |  |  |  |  |  | 9.8 µM | 0.0531 µM | 8.9 µM | 8.4 µM | 6.8 µM
5 | COc1cc(OC)c(-c2cn3ccc(C4=CCNCC4)cc3n2)cc1Cl [Example 52, 2-(5-chloro-2,4-dimethoxyphenyl)-7-(1,2,3,6-tetrahydropyridin-4-yl)imidazo[1,2-a]pyridine] |  |  |  |  |  | 1.5 µM | 0.0616 µM | 1.4 µM | 1.6 µM | 1.3 µM
6 | COc1cc(OC(C)C)c(-c2cn3ccc(N4CCCC4)cc3n2)cc1Br [Example 53, hydrobromide] |  |  |  |  |  | 2.5 µM | 0.0181 µM | 2.4 µM | 1.9 µM | 2.1 µM
7 | COc1cc(OC)c(-c2cn3ccc(N4CC[C@@H](N)C4)nc3n2)cc1Cl [Example 55, (R)-1-(2-(5-Chloro-2,4-dimethoxyphenyl)imidazo[1,2-a]pyrimidin-7-yl)pyrrolidin-3-amine hydrochloride] | 12 µM | 0.0262 µM | 10 µM | 4.8 µM | 14 µM |  |  |  |  | 
8 | COc1cc(OC)c(-c2cn3ccc(N4CC[C@H](NC(=O)OC(C)(C)C)C4)nc3n2)cc1Cl [Example 56, (S)-tert-butyl (1-(2-(5-chloro-2,4-dimethoxyphenyl)imidazo[1,2-a]-pyrimidin-7-yl)pyrrolidin-3-yl)carbamate] |  |  |  |  |  | 7.5 µM | 0.0168 µM | 7 µM | 5.7 µM | 7 µM
9 | COc1cc(OC)c(-c2cn3ccc(N4CC[C@@H](NC(=O)OC(C)(C)C)C4)nc3n2)cc1Cl [Example 57, (R)-tert-Butyl (1-(2-(5-chloro-2,4-dimethoxyphenyl)imidazo[1,2-a]pyrimidin-7-yl)-pyrrolidin-3-yl)carbamate] |  |  |  |  |  | 7.1 µM | 0.0108 µM | 7.2 µM | 4 µM | 4.8 µM
10 | COc1cc(OC)c(-c2cn3ccc(N4CC[C@H](N)C4)nc3n2)cc1Cl [Example 58, (S)-1-(2-(5-chloro-2,4-dimethoxyphenyl)imidazo[1,2-a]pyrimidin-7-yl)-pyrrolidin-3-amine hydrochloride] | 14 µM | 0.0296 µM | 9.4 µM | 6.2 µM | 13 µM |  |  |  |  | 
11 | COc1cc(OC(C)C)c(-c2cn3ccc(N4CC[C@H](N)C4)cc3n2)cc1Br [Example 59, (S)-1-(2-(5-bromo-2-isopropoxy-4-methoxyphenyl)imidazo[1,2-a]pyridin-7-yl)pyrrolidin-3-amine hydrochloride] | 3.4 µM | 0.0112 µM | 2.6 µM | 1.8 µM | 3.7 µM |  |  |  |  | 
12 | COc1cc(OC)c(-c2cn3ccc(N4CCC(NC(=O)CCNC(=O)OC(C)(C)C)C4)nc3n2)cc1Br (centres unmarked) [Example 65] |  |  |  |  |  | 28 µM | 0.014 µM | 17 µM | 27 µM | 26 µM
13 | COc1cc(OC)c(-c2cn3ccc(N4CCC(CCN)CC4)nc3n2)cc1Cl [Example 67] |  |  |  |  |  | 12 µM | 0.0216 µM | 13 µM | 9.6 µM | 13 µM
14 | COc1cc(OC)c(-c2cn3ccc(NCCN4CCOCC4)cc3n2)cc1Cl [Example 70, 2-(5-chloro-2,4-dimethoxyphenyl)-N-(2-morpholinoethyl)imidazo[1,2-a]pyridine-7-amine] |  |  |  |  |  | 14 µM | 0.0165 µM | 10 µM | 8.4 µM | 14 µM
15 | COc1cc(OC)c(-c2cn3ccc(N4CCC(N)C4)cc3n2)cc1C#N (centres unmarked) [Example 73, 5-[7-(3-aminopyrrolidin-1-yl)imidazo[1,2-a]pyridin-2-yl]-2,4-dimethoxybenzonitrile] |  |  |  |  |  | 2.3 µM | 0.0112 µM | 1.5 µM | 1.5 µM | 5.6 µM
16 | COc1cc(OC)c(-c2cn3ccc(N4CCC(NC(=O)OC(C)(C)C)C4)nc3n2)cc1C#N (centres unmarked) [Example 74, tert-butyl (1-(2-(5-cyano-2,4-dimethoxyphenyl)imidazo[1,2-a]pyrimidin-7-yl)pyrrolidin-3-yl) carbamate] |  |  |  |  |  | 8.5 µM | 0.0303 µM | 8.1 µM | 3.9 µM | 6.4 µM
17 | COc1cc(OC)c(-c2cn3ccc(NCCNC(C)=O)cc3n2)cc1Cl [Example 77, N-(2-((2-(5-chloro-2,4-dimethoxyphenyl)imidazo[1,2-a]pyridin-7-yl)amino)ethyl)acetamide] |  |  |  |  |  | 30 µM | 0.0101 µM | 21 µM | 15 µM | 31 µM
18 | COc1cc(OC)c(-c2cn3ccc(N4CCOCC4)nc3n2)cc1Cl [Example 79, 4-(2-(5-chloro-2,4-dimethoxyphenyl)imidazo[1,2-a]pyrimidin-7-yl)-morpholine hydrobromide] |  |  |  |  |  | 21 µM | 0.0344 µM | 21 µM | 15 µM | 22 µM
19 | COc1cc(OC)c(-c2cn3cc(NCCN)ccc3n2)cc1Cl [Example 81, N^1-(2-(5-chloro-2,4-dimethoxyphenyl)imidazo[1,2-a]pyridin-6-yl)ethane-1,2-diamine] |  |  |  |  |  | 13 µM | 0.0179 µM | 11 µM | 5.6 µM | 11 µM
20 | COc1cc(OC)c(-c2cn3ccc(NCCN(C)C)cc3n2)cc1Cl [Example 83, N^1-(2-(5-chloro-2,4-dimethoxyphenyl)imidazo[1,2-a]pyridin-7-yl)-N^2,N^2-dimethylethane-1,2-diamine] | 5.5 µM |  | 6.7 µM | 2.2 µM | 7.1 µM |  | 0.0373 µM |  |  | 
21 | COc1cc(OCC2CC2)c(-c2cn3ccc(N4CCOCC4)cc3n2)cc1Cl [Example 84, 4-(2-(5-chloro-2-(cyclopropylmethoxy)-4-methoxyphenyl)imidazo-[1,2-a]pyridin-7-yl)morpholine] |  |  |  |  |  | 4.6 µM | 0.0138 µM | 3.8 µM | 3.2 µM | 4.3 µM
22 | COc1cc(OCCCN(C)C)c(-c2cn3ccc(N4CCOCC4)cc3n2)cc1Cl [Example 85, 3-(4-chloro-5-methoxy-2-(7-morpholinoimidazo[1,2-a]pyridin-2-yl)-phenoxy)-N,N-dimethylpropan-1-amine] |  |  |  |  |  | 8.7 µM | 0.0338 µM | 9 µM | 3.5 µM | 7.9 µM
23 | COc1cc(OC)c(-c2cn3ccc(N4CCOCC4)cc3n2)cc1C [Example 86, 4-(2-(2,4-dimethoxy-5-methylphenyl)imidazo[1,2-a]pyridin-7-yl)morpholine] |  |  |  |  |  | 14 µM | 0.0207 µM | 14 µM | 8 µM | 13 µM
24 | COc1cc(OC)c(-c2cn3ccc(N4CCOCC4)cc3n2)cc1F [Example 87, 4-(2-(5-fluoro-2,4-dimethoxyphenyl)imidazo[1,2-a]pyridin-7-yl)morpholine hydrobromide] |  |  |  |  |  | 3.3 µM | 0.032 µM | 2.3 µM | 4 µM | 5.6 µM
25 | COc1cc(OC2CCCC2)c(-c2cn3ccc(N4CCOCC4)cc3n2)cc1Cl [Example 90, 4-(2-(5-chloro-2-(cyclopentyloxy)-4-methoxyphenyl)imidazo[1,2-a]-pyridin-7-yl)morpholine] |  |  |  |  |  | 7.1 µM | 0.0584 µM | 4.7 µM | 3.9 µM | 6 µM
